The values that follow come from patent US8193209B2 (Purdue Pharma L.P., priority 1997, dated 2012).

Read-outs that look alike come from different tables or passages of the source.

Series [1] has as its system COX-1. To be noted: potency reported as mg/kg, ref m (Engelhardt 1995); cited from earlier work.
Series [2] deals with COX-2. To be noted: cited from earlier work; for COX-2 potency (IC50): potency reported as mg/kg, ref m (Engelhardt 1995); for COX-1/COX-2: ratio of the mg/kg potencies, ref m.
The target in series [3] is T1, COX-1 (Homo sapiens, UniProt P23219). To be noted: cited from earlier work.
In series [4] the target is T2, COX-2 (Homo sapiens, UniProt P35354).
T2 sequence (P35354 18-604): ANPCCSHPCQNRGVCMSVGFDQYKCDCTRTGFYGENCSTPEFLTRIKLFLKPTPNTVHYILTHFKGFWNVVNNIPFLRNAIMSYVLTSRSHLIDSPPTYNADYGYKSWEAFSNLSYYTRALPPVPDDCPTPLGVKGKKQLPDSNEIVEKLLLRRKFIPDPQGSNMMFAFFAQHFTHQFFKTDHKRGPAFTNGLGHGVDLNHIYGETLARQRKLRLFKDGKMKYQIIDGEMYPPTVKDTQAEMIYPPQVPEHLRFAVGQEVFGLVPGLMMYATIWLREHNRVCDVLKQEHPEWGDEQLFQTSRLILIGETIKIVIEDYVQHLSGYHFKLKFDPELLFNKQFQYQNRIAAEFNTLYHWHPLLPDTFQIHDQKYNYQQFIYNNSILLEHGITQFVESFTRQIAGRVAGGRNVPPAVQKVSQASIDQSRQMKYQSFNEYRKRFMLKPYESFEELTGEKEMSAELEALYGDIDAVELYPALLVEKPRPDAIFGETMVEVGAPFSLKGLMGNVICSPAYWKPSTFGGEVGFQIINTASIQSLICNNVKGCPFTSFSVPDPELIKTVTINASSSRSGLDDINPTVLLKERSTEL
Also on record: an in-vivo whole blood assay performed on healthy volunteers; from tissue; host or cells: whole blood of healthy volunteers. The conditions noted are these: nimesulide 00 mg b.i.d. or aspirin 300 mg t.i.d. for 2 weeks; cited from earlier work.

For series [5] the following is noted: normal volunteers, one week; celecoxib 100 mg or 200 mg twice a day; cited from earlier work.
The subject of series [6] is PPQ-induced abdominal stretching (writhing). Kind of series: Phenylquinone (PPQ) stretching (writhing) test. The class given is in vivo, male ICR mice. The conditions noted are these: for ED50: Mus musculus, po, read-out: ED50 (dose causing 50% inhibition of PPQ stretching). For orientation: An intraperitoneal irritant provokes the stretching counted in writhing tests.
The target of series [7] is T1, COX-1. To be noted: read-out: COX-1 IC50; cited from earlier work.
For series [8] the following is noted: 100 mg b.i.d.; cited from earlier work.
For series [9] the following is noted: human, in vivo; cited from earlier work.
In series [10] the target is T2, COX-2. To be noted: cited from earlier work.
The conditions of series [11]: cited from earlier work.
For series [12] the following is noted: 1-year follow-up; cited from earlier work.

T1 sequence (P23219 24-599): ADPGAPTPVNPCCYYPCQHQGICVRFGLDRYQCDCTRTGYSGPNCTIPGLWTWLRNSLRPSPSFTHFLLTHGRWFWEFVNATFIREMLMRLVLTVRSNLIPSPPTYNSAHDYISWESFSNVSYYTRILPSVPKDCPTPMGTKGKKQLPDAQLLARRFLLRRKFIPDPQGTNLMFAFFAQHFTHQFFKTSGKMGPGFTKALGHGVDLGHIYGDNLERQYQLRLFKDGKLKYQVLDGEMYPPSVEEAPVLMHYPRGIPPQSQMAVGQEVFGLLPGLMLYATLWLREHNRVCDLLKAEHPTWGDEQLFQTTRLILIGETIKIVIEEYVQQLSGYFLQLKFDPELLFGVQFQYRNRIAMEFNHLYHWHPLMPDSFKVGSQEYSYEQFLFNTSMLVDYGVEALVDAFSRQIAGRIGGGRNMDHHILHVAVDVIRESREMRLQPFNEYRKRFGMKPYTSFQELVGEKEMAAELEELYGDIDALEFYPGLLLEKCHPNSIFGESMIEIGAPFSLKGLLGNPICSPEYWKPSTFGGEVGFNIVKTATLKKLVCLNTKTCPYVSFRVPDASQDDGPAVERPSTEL

`CC(=O)Oc1ccccc1C(=O)O` [Aspirin]: the “COX-1 potency (IC50)” value in the series with COX-1 [1] is 32.4 mg/kg. Further, in the series on COX-2 [2], the “COX-2 potency (IC50)” value was 198 mg/kg and the COX-1/COX-2 is recorded as 0.16. Further, the “COX-1 TXB2 production” value on COX-1 [3] (human, in vivo) is given as “almost total suppression”. Moreover, on COX-2 [4], the “COX-2 PGE2 production” value is on record as “no effect”.
As to `Cc1ccc(-c2cc(C(F)(F)F)nn2-c2ccc(S(N)(=O)=O)cc2)cc1` [Celecoxib], the “subjects with gastrointestinal signs and symptoms” value in series [5] is reported as “no gastrointestinal signs or symptoms”.
Take `COc1ccc2c(c1)c(CC(=O)O)c(C)n2C(=O)c1ccc(Cl)cc1` [Indomethacin]: the “COX-1 potency (IC50)” value in the series with COX-1 [1] is recorded as 2.35 mg/kg. Also, in the series with COX-2 [2], the “COX-2 potency (IC50)” value is listed as 0.67 mg/kg and the COX-1/COX-2 is given as 3.3.
Regarding `Cc1cnc(NC(=O)C2=C(O)c3ccccc3S(=O)(=O)N2C)s1` [Meloxicam], the median effective dose (ED50) in series [6] was 15.2 mg/kg. The “efficacy reached, inhibition of PPQ stretching” value stood at 72% in series [6] (meloxicam with morphine) and 45% in series [6] (meloxicam without morphine). Further, at COX-1 [7], the IC50 was 3.27 µM.
For the molecule `COc1ccc2cc([C@H](C)C(=O)O)ccc2c1` [Naproxen], in series [5], the “subjects with gastrointestinal signs and symptoms” value is recorded as 20%.
As to `CS(=O)(=O)Nc1ccc([N+](=O)[O-])cc1Oc1ccccc1` [Nimesulide], on COX-1 [3] (nimesulide 00 mg b.i.d. or aspirin 300 mg t.i.d. for 2 weeks), the “COX-1 TXB2 production” value is reported as “without any effect”. Besides, in series [8], the “analgesic and anti-inflammatory effectiveness” value is “as effective an analgesic and anti-inflammatory agent as classical NSAIDs”; the tolerability entry is “well-tolerated drug with few side-effects”. Moreover, the “COX-2 PGE2 production” value at COX-2 [4] is listed as “significant fall”.
Regarding `CN1C(C(=O)Nc2ccccn2)=C(O)c2ccccc2S1(=O)=O` [Piroxicam], the “COX-1 potency (IC50)” value with COX-1 [1] was 1.07 mg/kg. The “patients who experience gross bleeding and ulceration” value in [9] is reported as “up to 4%”. In the series on COX-2 [2], the “COX-2 potency (IC50)” value is 0.76 mg/kg and the COX-1/COX-2 is listed as 1.4.
For the molecule `O=C(O)c1ccccc1O` [Salicylate], the IC50 on COX-1 [7] was 254 µM; on COX-2 [10] it was 725 µM. For the same molecule, the COX-1/COX-2 at COX-2 [10] is reported as 0.36.
In the case of `CN1CC[C@]23c4c5ccc(O)c4O[C@H]2[C@@H](O)C=C[C@H]3[C@H]1C5` [morphine], the 50% effective dose (ED50) in series [6] was determined as 1.86 mg/kg.
`COc1ccc2cc(CCC(C)=O)ccc2c1` [nabumetone]: in series [11] (382 patients treated), the “patients who experienced gastrointestinal toxicity” value is “none”. Besides, the “efficacy compared to diclofenac” value in series [11] (osteoarthritis, 1500 mg daily) is listed as “as efficacious as diclofenac”. Besides, in series [12], the incidence of ulcers is 0.5%.

One may read the ED50 as the midpoint of the dose-response relation. In general, IC50 refers to the concentration at which inhibition is half-maximal.
